In patent US20040023994A1 (priority 2002, published 2004):

Tests used:
[1] = tested on: Heterozygous nude CD-1 male mice; experiment: Intestinal pathological analysis (crypt epithelial cell apoptosis) in treated mice; conditions: multiple doses
Procedure: Heterozygous nude CD-1 male mice were treated (i.p.) with multiple doses consisting of either one dose daily for three consecutive days (cis-AVTP or trans-AVTG, 21.25 μmol/kg, 6-TG, 8.5 or 21.25 μmol/kg, or vehicle; one cycle), or one dose daily for three consecutive days, repeated again five days later (cis-AVTP, trans-AVTG or 6-TG, 8.5 or 21.25 μmol/kg, or vehicle; two cycles).
The mice were sacrificed 24 h after the last treatment. Urine was collected for 24 h before initiation of treatment and every 24 h thereafter until the mice were sacrificed. Blood was collected by cardiac puncture and blood cells counted. Sections of liver, kidney, intestines, stomach and sternum were stained with hematoxylin and eosin and subjected to pathological analysis. Bone marrow smears were prepared for assessment of bone marrow cellularity. Liver function was evaluated by measuring alanine aminotransferase-(ALT) and aspartate aminotransferase (AST) activities in plasma. Kidney function was evaluated by measuring blood urea nitrogen in plasma and γ-glutamyltransferase activity and glucose levels in urine.

HCT-116 = conditions: HCT-116, Colon, NCI database, cited from earlier work
LOX IMVI = conditions: Melanoma, NCI database, cited from earlier work
M14 = conditions: M14, Melanoma, NCI database, cited from earlier work
UACC-257 = conditions: UACC-257, Melanoma, NCI database, cited from earlier work
UACC-62 = conditions: UACC-62, Melanoma, NCI database, cited from earlier work
NCI-H460 = conditions: NCI-H460, Non-Small Cell Lung, NCI database, cited from earlier work
NCI-H522 = conditions: NCI-H522, Non-Small Cell Lung, NCI database, cited from earlier work
SF-539 = conditions: SF-539, CNS, NCI database, cited from earlier work
SNB-19 = conditions: SNB-19, CNS, NCI database, cited from earlier work
U251 = conditions: U251, CNS, NCI database, cited from earlier work
[2] = read-out: LC50 (the source's name)

Structure (SMILES): Nc1nc2nc[nH]c2c(=S)[nH]1 [6-TG, 6-thioguanine]
- crypt epithelial apoptosis, large intestines [1]: considerable crypt cell apoptosis
- crypt epithelial cell apoptosis, small intestines [1]: extensively
- GI50 (HCT-116): 0.53 µM
- TGI (HCT-116): 16.2 µM
- CC50 (HCT-116; [2]): > 100 µM
- CC50 (LOX IMVI; [2]): > 100 µM
- GI50 (LOX IMVI): 0.21 µM
- TGI (LOX IMVI): 8.99 µM
- GI50 (M14): 0.58 µM
- TGI (M14): 14.3 µM
- CC50 (M14; [2]): > 100 µM
- GI50 (UACC-257): 1.98 µM
- TGI (UACC-257): 95.7 µM
- CC50 (UACC-257; [2]): > 100 µM
- GI50 (UACC-62): 0.5 µM
- TGI (UACC-62): 4.53 µM
- CC50 (UACC-62; [2]): 74.1 µM
- GI50 (NCI-H460): 0.66 µM
- TGI (NCI-H460): 20.0 µM
- CC50 (NCI-H460; [2]): > 100 µM
- GI50 (NCI-H522): 0.91 µM
- TGI (NCI-H522): 6.28 µM
- CC50 (NCI-H522; [2]): > 100 µM
- GI50 (SF-539): 1.02 µM
- TGI (SF-539): 68.4 µM
- CC50 (SF-539; [2]): > 100 µM
- GI50 (SNB-19): 78.5 µM
- TGI (SNB-19): >100 µM
- CC50 (SNB-19; [2]): > 100 µM
- GI50 (U251): 4.89 µM
- TGI (U251): >100 µM
- CC50 (U251; [2]): > 100 µM
